Measured values reported in PubChem BioAssay (NCI).
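Interpolation was linear, between the two tested concentrations surrounding the appropriate level; five concentrations were tested over 48 hours in 96-well plates. TGI is the concentration that stops growth completely.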

What was measured:
Experiment in all cases: NCI-60 cell line screen, 48 h
[1] = system: UO-31 renal
[2] = system: OVCAR-5 ovarian
[3] = system: HT29 colon
[4] = system: COLO 205 colon
[5] = system: ACHN renal
[6] = system: IGROV1 ovarian
[7] = system: NCI-H226 lung
[8] = system: NCI-H522 lung
[9] = system: OVCAR-3 ovarian
[10] = system: CAKI-1 renal
[11] = system: PC-3 prostate
[12] = system: KM12 colon
[13] = system: A549 NSCLC
[14] = system: SF-268 CNS
[15] = system: SK-MEL-28 melanoma
[16] = system: MDA-MB-231 breast
[17] = system: SK-MEL-2 melanoma
[18] = system: A498 renal
[19] = system: HCT-116 colon
[20] = system: MDA-N
[21] = system: NCI-H23 lung
[22] = system: SK-MEL-5 melanoma
[23] = system: SNB-19 CNS
[24] = system: MALME-3M melanoma
[25] = system: UACC-257 melanoma
[26] = system: U251 CNS
[27] = system: NCI-H460 lung
[28] = system: MOLT-4 leukemia
[29] = system: EKVX NSCLC
[30] = system: DU-145 prostate
[31] = system: SNB-75 CNS
[32] = system: HCC-2998 colon
[33] = system: OVCAR-8 ovarian
[34] = system: MDA-MB-435
[35] = system: HOP-92 NSCLC
[36] = system: T-47D breast
[37] = system: SF-295 CNS
[38] = system: LOX IMVI melanoma
[39] = system: CCRF-CEM leukemia
[40] = system: K-562 leukemia
[41] = system: RXF 393 renal
[42] = system: SK-OV-3 ovarian
[43] = system: BT-549 breast
[44] = system: RPMI-8226 leukemia
[45] = system: HOP-62 NSCLC
[46] = system: HCT-15 colon
[47] = system: NCI/ADR-RES ovarian
[48] = system: 786-0 renal
[49] = system: MCF7 breast
[50] = system: SF-539 CNS
[51] = system: OVCAR-4 ovarian
[52] = system: SW-620 colon
[53] = system: HL-60(TB) leukemia
[54] = system: UACC-62 melanoma
[55] = system: M14 melanoma
[56] = system: SN12C renal
[57] = system: TK-10 renal
[58] = system: HS 578T breast
[59] = system: SR leukemia

Compound: Cc1c2c(OCCN3CCCCC3)nn(C)c(=O)c2c(C)n1-c1ccccc1
- TGI [1]: 29.1 µM
- TGI [2]: > 100 µM
- TGI [3]: > 100 µM
- TGI [4]: 35.5 µM
- TGI [5]: > 100 µM
- TGI [6]: > 100 µM
- TGI [7]: > 100 µM
- TGI [8]: 84.1 µM
- TGI [9]: > 100 µM
- TGI [10]: > 100 µM
- TGI [11]: > 100 µM
- TGI [12]: > 100 µM
- TGI [13]: > 100 µM
- TGI [14]: > 100 µM
- TGI [15]: 84.7 µM
- TGI [16]: > 100 µM
- TGI [17]: 33.1 µM
- TGI [18]: 36.9 µM
- TGI [19]: > 100 µM
- TGI [20]: > 100 µM
- TGI [21]: > 100 µM
- TGI [22]: 32.1 µM
- TGI [23]: > 100 µM
- TGI [24]: 35.3 µM
- TGI [25]: 42.6 µM
- TGI [26]: > 100 µM
- TGI [27]: > 100 µM
- TGI [28]: > 100 µM
- TGI [29]: > 100 µM
- TGI [30]: > 100 µM
- TGI [31]: > 100 µM
- TGI [32]: 65.3 µM
- TGI [33]: > 100 µM
- TGI [34]: > 100 µM
- TGI [35]: > 100 µM
- TGI [36]: > 100 µM
- TGI [37]: 47.9 µM
- TGI [38]: 51.1 µM
- TGI [39]: > 100 µM
- TGI [40]: > 100 µM
- TGI [41]: > 100 µM
- TGI [42]: > 100 µM
- TGI [43]: > 100 µM
- TGI [44]: 95.1 µM
- TGI [45]: > 100 µM
- TGI [46]: > 100 µM
- TGI [47]: > 100 µM
- TGI [48]: 36.7 µM
- TGI [49]: > 100 µM
- TGI [50]: 74.9 µM
- TGI [51]: > 100 µM
- TGI [52]: > 100 µM
- TGI [53]: > 100 µM
- TGI [54]: > 100 µM
- TGI [55]: 33.4 µM
- TGI [56]: > 100 µM
- TGI [57]: > 100 µM
- TGI [58]: > 100 µM

Compound: CC(=O)OCC1OC(Oc2cc(C)c(O)cc2C/C=C(\C)CC/C=C(\C)CC(=O)CC(C)C)C(O)C(OC(C)=O)C1OC(C)=O (centres undefined)
- TGI [1]: 32 µM
- TGI [2]: > 50 µM
- TGI [3]: 12.5 µM
- TGI [4]: 17.3 µM
- TGI [5]: 44.9 µM
- TGI [6]: > 50 µM
- TGI [8]: > 50 µM
- TGI [9]: 30 µM
- TGI [10]: > 50 µM
- TGI [11]: > 50 µM
- TGI [12]: 29.4 µM
- TGI [13]: 20.3 µM
- TGI [14]: > 50 µM
- TGI [15]: > 50 µM
- TGI [16]: 31.1 µM
- TGI [17]: 26.6 µM
- TGI [18]: 27.6 µM
- TGI [19]: > 50 µM
- TGI [20]: > 50 µM
- TGI [21]: 18.8 µM
- TGI [22]: 14.9 µM
- TGI [23]: > 50 µM
- TGI [24]: > 50 µM
- TGI [25]: 31.7 µM
- TGI [26]: 41.9 µM
- TGI [27]: 40 µM
- TGI [28]: 19.5 µM
- TGI [29]: 16.3 µM
- TGI [30]: > 50 µM
- TGI [31]: > 50 µM
- TGI [32]: 24.5 µM
- TGI [33]: > 50 µM
- TGI [34]: 48.4 µM
- TGI [35]: > 50 µM
- TGI [36]: 27.3 µM
- TGI [37]: > 50 µM
- TGI [38]: 32.7 µM
- TGI [39]: 22.3 µM
- TGI [40]: 23.2 µM
- TGI [41]: 22.6 µM
- TGI [42]: > 50 µM
- TGI [43]: 31.2 µM
- TGI [44]: 21.4 µM
- TGI [45]: 40 µM
- TGI [46]: > 50 µM
- TGI [47]: 31.9 µM
- TGI [48]: > 50 µM
- TGI [49]: 43.8 µM
- TGI [51]: > 50 µM
- TGI [52]: 24.6 µM
- TGI [53]: 23.4 µM
- TGI [54]: 39.1 µM
- TGI [55]: 25.7 µM
- TGI [56]: 40.3 µM
- TGI [57]: 41.1 µM
- TGI [58]: 35.2 µM

Compound: Cc1cn([C@@H]2O[C@H](CO[Si](C)(C)C(C)(C)C)[C@]3(O[C@H]3C(=O)NN)[C@H]2O[Si](C)(C)C(C)(C)C)c(=O)[nH]c1=O
- TGI [1]: 27.7 µM
- TGI [2]: 21.3 µM
- TGI [3]: 7.79 µM
- TGI [4]: 6.74 µM
- TGI [5]: 15.6 µM
- TGI [6]: 18.6 µM
- TGI [7]: 27.6 µM
- TGI [8]: 5.47 µM
- TGI [9]: 15.9 µM
- TGI [10]: 28.2 µM
- TGI [11]: 11.4 µM
- TGI [12]: 32.6 µM
- TGI [13]: 16.6 µM
- TGI [14]: 12 µM
- TGI [15]: 25.3 µM
- TGI [16]: 13.7 µM
- TGI [17]: 17.4 µM
- TGI [18]: 30.5 µM
- TGI [19]: 13.3 µM
- TGI [20]: 13.3 µM
- TGI [21]: 30 µM
- TGI [22]: 24 µM
- TGI [23]: 21.7 µM
- TGI [24]: 11.8 µM
- TGI [25]: 27.6 µM
- TGI [26]: 14.5 µM
- TGI [27]: 15.6 µM
- TGI [28]: 6.02 µM
- TGI [29]: 22.4 µM
- TGI [30]: 21.8 µM
- TGI [31]: 22.9 µM
- TGI [32]: 7.78 µM
- TGI [33]: 19.8 µM
- TGI [34]: 23.1 µM
- TGI [35]: 19.7 µM
- TGI [36]: 6.32 µM
- TGI [37]: 22.2 µM
- TGI [38]: 10.7 µM
- TGI [39]: 5.43 µM
- TGI [40]: 7.17 µM
- TGI [41]: > 25.2 µM
- TGI [42]: 36.2 µM
- TGI [43]: 13.9 µM
- TGI [44]: 9.19 µM
- TGI [45]: 33.3 µM
- TGI [46]: 14.8 µM
- TGI [47]: 33 µM
- TGI [48]: 14.7 µM
- TGI [49]: 15.1 µM
- TGI [50]: 16.3 µM
- TGI [51]: 22.6 µM
- TGI [52]: 20 µM
- TGI [53]: 6.09 µM
- TGI [54]: 24 µM
- TGI [55]: 20.4 µM
- TGI [56]: 13.9 µM
- TGI [57]: 26.9 µM
- TGI [58]: 6.93 µM

Compound: CC(=O)On1c(-c2ccccc2-c2nc3ccccc3n2OC(C)=O)nc2ccccc21
- TGI [1]: > 100 µM
- TGI [2]: > 100 µM
- TGI [4]: 46 µM
- TGI [5]: > 100 µM
- TGI [6]: > 100 µM
- TGI [7]: > 100 µM
- TGI [8]: 51.5 µM
- TGI [9]: > 100 µM
- TGI [10]: > 100 µM
- TGI [11]: 58.6 µM
- TGI [12]: > 100 µM
- TGI [13]: > 100 µM
- TGI [14]: > 100 µM
- TGI [59]: > 100 µM
- TGI [15]: > 100 µM
- TGI [16]: > 100 µM
- TGI [17]: 88.6 µM
- TGI [19]: > 100 µM
- TGI [20]: > 100 µM
- TGI [21]: 76.6 µM
- TGI [22]: 13.7 µM
- TGI [23]: > 100 µM
- TGI [24]: > 100 µM
- TGI [25]: > 100 µM
- TGI [26]: > 100 µM
- TGI [28]: 71.1 µM
- TGI [30]: > 100 µM
- TGI [31]: > 100 µM
- TGI [32]: > 100 µM
- TGI [33]: > 100 µM
- TGI [34]: > 100 µM
- TGI [36]: > 100 µM
- TGI [37]: > 100 µM
- TGI [38]: > 100 µM
- TGI [39]: > 100 µM
- TGI [40]: > 100 µM
- TGI [42]: > 100 µM
- TGI [43]: > 100 µM
- TGI [44]: 71 µM
- TGI [45]: > 100 µM
- TGI [46]: > 100 µM
- TGI [47]: > 100 µM
- TGI [48]: > 100 µM
- TGI [49]: > 100 µM
- TGI [50]: > 100 µM
- TGI [52]: > 100 µM
- TGI [53]: 72.8 µM
- TGI [54]: > 100 µM
- TGI [55]: > 100 µM
- TGI [56]: > 100 µM
- TGI [57]: > 100 µM
- TGI [58]: > 100 µM
